Measurements: patent US20230138395A1, “PHARMACEUTICAL COMPOSITIONS OF A THERAPEUTIC POLYENE MACROLIDE AND METHODS OF THEIR USE” (priority 2020, published 2023)
Values after ≈ are worked out from the molar mass of the structure shown. Values joined by “and” are separate entries in the source; they are usually repeats but may differ in a detail not shown here. Equal entries are not always repeated.

Tests used:
C. parapsilosis [1] = assay: MIC testing (CLSI M27-A3); assay type: cell-based; set-up: MIC: unit not given beside the values
[2] = tested on: individual Aspergillus spp. (Table 13, species not given); assay: MIC testing (CLSI M38-A2), Table 13; assay type: cell-based; details: Aspergillus sp. of Table 13, caspofungin read as MEC
Candida albicans [3] = assay: MIC testing (CLSI M27-A3); assay type: cell-based; set-up: MIC: unit not given beside the values; details: for MIC Range: in µg/mL
[4] = tested on: individual Aspergillus spp. (Table 12, species not named); assay: MIC testing (CLSI M38-A2), Table 12; assay type: cell-based; details: Aspergillus sp. of Table 12, caspofungin read as MEC
[5] = tested on: all Aspergillus strains tested; assay: MIC testing (CLSI M38-A2), summary; assay type: cell-based; details: caspofungin read as MEC
C. tropicalis = assay: MFC determination; assay type: cell-based; details: C. tropicalis
Penicillium strains [6] = assay: MIC testing (CLSI M38-A2); assay type: cell-based, Penicillium spp.; details: Penicillium
Cr. neoformans strains = assay: MFC determination; assay type: cell-based, Cryptococcus neoformans; details: Cr. neoformans
Penicillium strains [7] = assay: MFC determination; assay type: cell-based, Penicillium spp.
[8] = tested on: individual Aspergillus spp. (Table 15, species not named); assay: MIC testing (CLSI M38-A2), Table 15; assay type: cell-based; details: Aspergillus sp. of Table 15, caspofungin read as MEC
[9] = tested on: Aspergillus fumigatus AF91; assay: Disseminated Aspergillosis in immunocompromised murine model (CD-1 mice): tissue fungal burden; details: Experiment I; 1.0 mg/kg i.v., 7 days
C. krusei strains = assay: MIC testing (CLSI M27-A3); assay type: cell-based
A. fumigatus AF91 [10] = assay: In vitro activity (MFC) against the infecting strain, Example 17; assay type: cell-based, Aspergillus fumigatus; details: Aspergillus fumigatus, read-out: MFC
Experimental: Minimum Fungicidal Concentration: MFC determinations were performed according to the modifications previously described by Canton et al., Diagn. Microbiol. Infect. Dis., 45:203-206, 2003, and Ghannoum and Isham, Infectious Diseases in Clinical Practice, 15(4):250-253, 2007.
Specifically, the total contents of each clear well from the MIC assay were subcultured onto potato dextrose agar. To avoid antifungal carryover, the aliquots were allowed to soak into the agar and then were streaked for isolation once dry, thus removing the cells from the drug source. Fungicidal activity is defined as ≥99.9% reduction in the number of colony forming units (CFU)/ml from the starting inoculum count, while fungistatic activity is defined as <99.9% reduction. […] MIC and MFC values are considered to be equivalent if they are within 2 dilutions.

A. fumigatus AF91 [11] = assay: In vitro activity (MIC) against the infecting strain, Example 17; assay type: cell-based, Aspergillus fumigatus; details: Aspergillus fumigatus, minimum effective concentration, read-out: MIC read as MEC
Experimental: Minimum Inhibitory Concentration: MIC testing was performed according to the Clinical and Laboratory Standards Institute (CLSI) M27-A3 and M38-A2 standards for the susceptibility testing of yeasts and filamentous fungi, respectively (Cryptococcus isolates were incubated for 72 h). For yeast strains, the incubation temperature and time were 35° C. and 24-48 h, respectively, and the inoculum size was 0.5-2.5×10^3 CFU/ml. For filamentous strains, the inoculum size was 0.4-5×10^4 CFU/ml, and the incubation time was strain and drug specific. RPMI 1640 was the test medium throughout, with the exception of the use of YNB for Cryptococcus. Inhibition endpoints for compound 1A were recorded at 50% and 100% after both 24 h and 48 h incubation; caspofungin results against Aspergillus strains were read as minimum effective concentrations (MEC), the lowest concentration that leads to small, rounded, compact growth as compared to the confluent growth of the control.

[12] = tested on: individual Aspergillus spp. (Table 12, species not named); assay: MFC determination, Table 12; assay type: cell-based; details: Aspergillus sp. of Table 12
Candida albicans [13] = assay: MFC determination; assay type: cell-based
[14] = tested on: Fusarium strains (Table 18); assay: MIC testing (CLSI M38-A2), Table 18; assay type: cell-based, Fusarium spp.
[15] = tested on: all Aspergillus strains tested; assay: MFC determination, summary; assay type: cell-based
C. albicans SC5314 = assay: In vitro activity (MFC) against the infecting strain, Example 18; assay type: cell-based, Candida albicans; details: Candida albicans, read-out: MFC
C. parapsilosis [16] = assay: MFC determination; assay type: cell-based
[17] = tested on: individual Aspergillus spp. (Table 15, species not named); assay: MFC determination, Table 15; assay type: cell-based; details: Aspergillus sp. of Table 15
Fusarium strains = assay: MFC determination, Table 17; assay type: cell-based, Fusarium spp.; details: Fusarium strains (Table 17)
[18] = individual C. parapsilosis strain with elevated MICs to non-polyene comparators (Table 22), in µg/mL
[19] = individual C. albicans strain with elevated MICs to non-polyene comparators (Table 22), listed as Cas

Compound: CC[C@H](C)C[C@H](C)CCCCCCCCC(=O)N[C@H]1C[C@@H](O)[C@@H](NCCN)NC(=O)[C@@H]2[C@@H](O)CCN2C(=O)[C@H]([C@H](O)CCN)NC(=O)[C@H]([C@H](O)[C@@H](O)c2ccc(O)cc2)NC(=O)[C@@H]2C[C@@H](O)CN2C(=O)[C@H]([C@@H](C)O)NC1=O [Caspofungin, caspofungin]
- MIC Range (C. parapsilosis [1]; C. parapsilosis strains, in µg/mL): 0.25-2
- MIC50 (C. parapsilosis [1]; C. parapsilosis, inhibits 50% of strains): 0.5 µg/mL (≈ 0.457 µM)
- MIC90 (C. parapsilosis [1]; C. parapsilosis, inhibits 90% of strains): 2 µg/mL (≈ 1.83 µM)
- MIC (C. parapsilosis [1]; [18]): 2
- MIC Range ([2]; in µg/mL): 0.25-1
- MIC50 ([2]; inhibits 50% of strains): 0.25 µg/mL (≈ 0.229 µM)
- MIC90 ([2]; inhibits 90% of strains): 0.5 µg/mL (≈ 0.457 µM)
- MIC Range (Candida albicans [3]; Fluconazole-resistant C. albicans n = 7): 0.125-2
- MIC Range (Candida albicans [3]; Fluconazole-susceptible C. albicans n = 13): 0.125-0.25
- MIC50 (Candida albicans [3]; Fluconazole-susceptible C. albicans n = 13, inhibits 50% of strains): 0.25 µg/mL (≈ 0.229 µM)
- MIC90 (Candida albicans [3]; Fluconazole-susceptible C. albicans n = 13, inhibits 90% of strains): 0.25 µg/mL (≈ 0.229 µM)
- MIC (Candida albicans [3]; [19]): 1 (2×) and 2
- MIC Range ([4]; in µg/mL): 0.125-8
- MIC50 ([4]; inhibits 50% of strains): 0.25 µg/mL (≈ 0.229 µM)
- MIC90 ([4]; inhibits 90% of strains): 0.5 µg/mL (≈ 0.457 µM)
- MIC Range ([5]; in µg/mL): 0.125-8
- MIC50 ([5]; inhibits 50% of strains): 0.25 µg/mL (≈ 0.229 µM)
- MIC90 ([5]; inhibits 90% of strains): 0.5 µg/mL (≈ 0.457 µM)
- MFC50 (C. tropicalis; kills 50% of strains): 32 µg/mL (≈ 29.3 µM)
- MFC90 (C. tropicalis; kills 90% of strains): > 32 µg/mL
- MIC50 (Penicillium strains [6]; inhibits 50% of strains): 4 µg/mL (≈ 3.66 µM)
- MIC90 (Penicillium strains [6]; inhibits 90% of strains): 32 µg/mL (≈ 29.3 µM)
- MFC50 (Cr. neoformans strains; kills 50% of strains): > 32 µg/mL
- MFC90 (Cr. neoformans strains; kills 90% of strains): > 32 µg/mL
- MFC50 (Penicillium strains [7]; kills 50% of strains): > 32 µg/mL
- MFC90 (Penicillium strains [7]; kills 90% of strains): > 32 µg/mL
- MIC Range ([8]; in µg/mL): 0.25-1
- MIC50 ([8]; inhibits 50% of strains): 0.25 µg/mL (≈ 0.229 µM)
- MIC90 ([8]; inhibits 90% of strains): 0.5 µg/mL (≈ 0.457 µM)
- Kidney tissue fungal burden, Mean log CFUs ± the standard deviation [9]: 3.11 ± 0.62 log CFUs
- Lung tissue fungal burden, Mean log CFUs ± the standard deviation [9]: 3.41 ± 0.64 log CFUs
- MIC Range (C. krusei strains; C. krusei strains, in µg/mL): 0.5-16
- MIC50 (C. krusei strains; C. krusei, inhibits 50% of strains): 1 µg/mL (≈ 0.915 µM)
- MIC90 (C. krusei strains; C. krusei, inhibits 90% of strains): 4 µg/mL (≈ 3.66 µM)
- MIC (C. krusei strains; individual C. krusei strain with elevated MICs to non-polyene comparators (Table 22)): 16 µg/mL (≈ 14.6 µM)
- MFC (A. fumigatus AF91 [10]): > 16 µg/mL
- MIC (A. fumigatus AF91 [11]): 0.25 µg/mL (≈ 0.229 µM)
- MFC50 ([12]; kills 50% of strains): > 32 µg/mL
- MFC90 ([12]; kills 90% of strains): > 32 µg/mL
- MFC Range (Candida albicans [13]; Fluconazole-susceptible C. albicans n = 13, in µg/mL): 0.5-32
- MFC50 (Candida albicans [13]; Fluconazole-susceptible C. albicans n = 13, kills 50% of strains): 0.25 µg/mL (≈ 0.229 µM)
- MFC90 (Candida albicans [13]; Fluconazole-susceptible C. albicans n = 13, kills 90% of strains): 2 µg/mL (≈ 1.83 µM)
- MFC (Candida albicans [13]; [19]): >32 (2×) and 32
- MIC50 ([14]; inhibits 50% of strains): > 32 µg/mL
- MIC90 ([14]; inhibits 90% of strains): > 32 µg/mL
- MFC50 ([15]; kills 50% of strains): > 32 µg/mL
- MFC90 ([15]; kills 90% of strains): > 32 µg/mL
- MFC (C. albicans SC5314): 32 µg/mL (≈ 29.3 µM)
- MFC50 (C. parapsilosis [16]; C. parapsilosis, kills 50% of strains): > 32 µg/mL
- MFC90 (C. parapsilosis [16]; C. parapsilosis, kills 90% of strains): > 32 µg/mL
- MFC (C. parapsilosis [16]; [18]): >32
- MFC50 ([17]; kills 50% of strains): > 32 µg/mL
- MFC90 ([17]; kills 90% of strains): > 32 µg/mL
- MFC Range (Fusarium strains; in µg/mL): >32
- MFC50 (Fusarium strains; kills 50% of strains): > 32 µg/mL
- MFC90 (Fusarium strains; kills 90% of strains): > 32 µg/mL
